In the test the test system is sunburned skin. The experiment in a line: topical treatment of sunburned skin. Conditions: compared with other anti-inflammatory drugs, such as Motrin® and Tolectin®. It is filed as in vivo, human being. The text has this: The present invention provides a method and composition for treating sunburned skin of a human being. The composition includes a mixture of indomethacin and a moisturizing lotion. […] It is believed that the skin, with the presence of the topical formulation, acts as a reservoir, absorbing large amounts of the indomethacin and slowly releasing the indomethacin into the skin and to other tissues. The skin may actually act as a depot or reservoir for the indomethacin. It is believed that the indomethacin is stabilized and solubilized by the moisturizing lotion wherein the moisturizing lotion enhances the absorption of the indomethacin through the skin and accordingly permits the drug to be employed topically for inflammation of the sunburned skin. […] This mixture level allows the Cetaphil® to act as a proper stabilizer and solubilizer for the indomethacin. A stronger or weaker indomethacin mixture may be created depending on the treatment. However, experimentation has shown that the above-noted mixture remains an effective mixture for the treatment of sunburned skin. In use, the disclosed amounts of indomethacin and Cetaphil® are mixed to create the appropriate composition. […] The moisturizing lotion provides moisture and a cooling sensation to the sunburned skin, and the indomethacin reduces the inflammation to the skin caused by the sunburn. […]

As for `COc1ccc2c(c1)c(CC(=O)O)c(C)n2C(=O)c1ccc(Cl)cc1` [indomethacin, 1-(p-chlorobenzoyl)-5-methoxy-2-methylindole-3-acetic acid], the relieving sunburned skin entry was “far better results”.
